The text below walks through data of patent US20180264121A1, “CANNABINOID-CONTAINING ORAL PHARMACEUTICAL COMPOSITION, METHOD FOR PREPARING AND USING SAME” (PRATI-DONADUZZI & CIA LTDA., priority 2015, published 2018).

The data set in a line: Solubility of the API (quality-control specification). Type of data set: physicochemical. From the text:
Validated Analytical Methodology and Acceptable Limits to Ensure Identity, Quality and Purity of the API.

For the compound `C=C(C)[C@@H]1CCC(C)=C[C@H]1c1c(O)cc(CCCCC)cc1O` [API, cannabidiol], the SOLUBILITY result is, setting by setting: (in chloroform) “SOLUBLE”; (in ethanol 96%) “SOLUBLE”; (in hexane) “SLIGHTLY SOLUABLE IN HEXANE”; (in purified water) “INSOLUBLE”.
